Test results from patent publication US20130184227A1, “Cytochrome P450 2C9 Inhibitors” (priority 2004, published 2013).
Like-named read-outs stand apart in the source and are kept apart here.

Key:
CYP2C9 [1] = conditions: tolbutamide 1 mM, rat liver microsomes
CYP2C9 [2] = assay: in vitro; conditions: Sprague-Dawley, rat, microsomes
[3] = pH 7.4, % inhibition of CYP2C9 activity
[4] = pH 7.4, % inhibition of CYP2C9 activity, test article 1 μM, tolbutamide 1 mM, rat liver microsomes
[5] = pH 7.4, % inhibition of CYP2C9 activity, test article 10 μM, tolbutamide 1 mM, rat liver microsomes
[6] = pH 7.4, % inhibition of CYP2C9 activity, test article 100 μM, tolbutamide 1 mM, rat liver microsomes

inhibition at 7.5 min, 1 μM (CYP2C9 [2]; [3]) [%]	inhibition at 7.5 min, 10 μM (CYP2C9 [2]; [3]) [%]	inhibition at 7.5 min, 100 μM (CYP2C9 [2]; [3]) [%]	SMILES	further results
–	–	–	O=c1cc(-c2ccccc2)oc2ccc3ccccc3c12 [β-Naphthoflavone]	% inhibition of CYP2C9 activity (CYP2C9 [1]; test article 1 μM): 2.35%; % inhibition of CYP2C9 activity (CYP2C9 [1]; test article 10 μM): 4.64%
14.3	11.6	51	O=c1c(O)c(-c2ccc(O)cc2O)oc2cc(O)cc(O)c12 [Morin]	–
–	–	–	O=c1c(O)c(-c2ccc(O)c(O)c2)oc2cc(O)cc(O)c12 [quercetin]	inhibition at 7.5 min, 1 μM (CYP2C9 [2]; pH 7.4): 15.1%; inhibition at 7.5 min, 10 μM (CYP2C9 [2]; pH 7.4): 44.8%; inhibition at 7.5 min, 100 μM (CYP2C9 [2]; pH 7.4): 91.9%
24.7	11.2	–	CCCCCCCCCCCC1=C(O)C(=O)C=C(O)C1=O [Embelin]	inhibition at 7.5 min, 50 μM (CYP2C9 [2]; [3]): 18%
–	–	–	O=c1cc(-c2ccccc2)oc2cc(O)c(O)c(O)c12 [Baicalein]	inhibition at 7.5 min, 2.5 μM (CYP2C9 [2]; [3]): 1.76%; inhibition at 7.5 min, 25 μM (CYP2C9 [2]; [3]): 5.06%
-3.05	-2.47	-0.97	O=C(O)c1cc(O)c(O)c(O)c1 [gallic acid]	–
32.8	28.6	69.6	O=C1C[C@@H](c2ccc(O)c(O)c2)Oc2cc(O)cc(O)c21 [eriodictyol]	–
–	–	–	O=C(O)[C@H]1O[C@@H](Oc2cc3oc(-c4ccccc4)cc(=O)c3c(O)c2O)[C@H](O)[C@@H](O)[C@@H]1O [baicalin]	inhibition at 7.5 min, 2.5 μM (CYP2C9 [2]; [3]): -5.36%; inhibition at 7.5 min, 25 μM (CYP2C9 [2]; [3]): 7.77%
–	–	–	COc1ccc([C@@H]2CC(=O)c3c(O)cc(O[C@@H]4O[C@H](CO[C@@H]5O[C@@H](C)[C@H](O)[C@@H](O)[C@H]5O)[C@@H](O)[C@H](O)[C@H]4O)cc3O2)cc1O [Hesperidin]	% inhibition of CYP2C9 activity (CYP2C9 [1]; test article 1 μM): 2.57%; % inhibition of CYP2C9 activity (CYP2C9 [1]; test article 10 μM): 6.68%
38.1	39	33.3	O=c1c(-c2ccc(O)cc2)coc2c([C@@H]3O[C@H](CO)[C@@H](O)[C@H](O)[C@H]3O)c(O)ccc12 [Puerarin]	–
–	–	–	O=C1c2c(O)cc(O)cc2O[C@H](c2ccc(O)c(O)c2)[C@H]1O [(+)-Taxifolin]	inhibition at 7.5 min, 1 μM (CYP2C9 [2]; [4]): -1.29%; inhibition at 7.5 min, 10 μM (CYP2C9 [2]; [5]): 31.2%; inhibition at 7.5 min, 100 μM (CYP2C9 [2]; [6]): 50.5%
24.1	16.6	29.9	C=CC(=C)CCC=C(C)C [β-Myrcene]	–
7.76	16.3	15	COc1ccc([C@@H]2CC(=O)c3c(O)cc(O[C@@H]4O[C@H](CO)[C@@H](O)[C@H](O)[C@H]4O[C@@H]4O[C@@H](C)[C@H](O)[C@@H](O)[C@H]4O)cc3O2)cc1 [Poncirin]	–
–	–	–	O=c1c(-c2ccc(O)cc2)coc2cc(O[C@@H]3O[C@H](CO)[C@@H](O)[C@H](O)[C@H]3O)ccc12 [Daidzin]	inhibition at 7.5 min, 1 μM (CYP2C9 [2]; pH 7.4): 0.95%; inhibition at 7.5 min, 10 μM (CYP2C9 [2]; pH 7.4): -2.46%; inhibition at 7.5 min, 25 μM (CYP2C9 [2]; pH 7.4): -1.16%; inhibition at 7.5 min, 100 μM (CYP2C9 [2]; pH 7.4): -1.33%
–	–	–	C[C@@H]1O[C@@H](Oc2c(-c3ccc(O)c(O)c3)oc3cc(O)cc(O)c3c2=O)[C@H](O)[C@H](O)[C@H]1O [Quercitrin]	inhibition at 7.5 min, 1 μM (CYP2C9 [2]; pH 7.4): 24.2%; inhibition at 7.5 min, 10 μM (CYP2C9 [2]; pH 7.4): 21.1%; inhibition at 7.5 min, 100 μM (CYP2C9 [2]; pH 7.4): 13.5%
–	–	–	O=c1c(-c2ccc(O)cc2)coc2cc(O)cc(O)c12 [Genistein]	inhibition at 7.5 min, 1 μM (CYP2C9 [2]; [4]): 49.6%; inhibition at 7.5 min, 10 μM (CYP2C9 [2]; [5]): 67.7%; inhibition at 7.5 min, 100 μM (CYP2C9 [2]; [6]): 82.7%; inhibition at 7.5 min, 1 μM (CYP2C9 [2]; pH 7.4, % inhibition of tolbutamide metabolism in microsomes, 1 μM, reaction time 7.5 minute, n = 3): 49.6%; inhibition at 7.5 min, 100 μM (CYP2C9 [2]; pH 7.4, % inhibition of tolbutamide metabolism in microsomes, 100 μM, reaction time 7.5 minute, n = 3): 82.7%; inhibition at 7.5 min, 10 μM (CYP2C9 [2]; pH 7.4, % inhibition of tolbutamide metabolism in microsomes, 10 Mm, reaction time 7.5 minute, n = 3): 67.7%; inhibition at 7.5 min, 1 μM (CYP2C9 [2]; pH 7.4, % inhibition, 1 μM (low concentration)): 49.6%; inhibition at 7.5 min, 10 μM (CYP2C9 [2]; pH 7.4, % inhibition, 10 μM (mid concentration)): 67.7%; inhibition at 7.5 min, 100 μM (CYP2C9 [2]; pH 7.4, % inhibition, 100 μM (high concentration)): 82.7%
16.3	16.6	18.4	C=C[C@H]1[C@H](O[C@@H]2O[C@H](CO)[C@@H](O)[C@H](O)[C@H]2O)OC=C2C(=O)OCC[C@]21O [Swertiamarin]	–
-2.59	-14	-6.46	C[C@@H]1O[C@@H](OC[C@H]2O[C@@H](Oc3c(-c4ccc(O)c(O)c4)oc4cc(O)cc(O)c4c3=O)[C@H](O)[C@@H](O)[C@@H]2O)[C@H](O)[C@H](O)[C@H]1O [Rutin]	–
20.1	37.9	93.2	O=c1cc(-c2ccc(O)c(O)c2)oc2cc(O)cc(O)c12 [luteolin]	–
10.1	0.7	-1.77	C[C@@]12C[C@@]3(O)O[C@@H](O1)[C@]1(COC(=O)c4ccccc4)[C@H]3C[C@@]12O[C@@H]1O[C@H](CO)[C@@H](O)[C@H](O)[C@H]1O [paeoniflorin]	–
-16.1	9.76	81.2	CC(Cc1ccc(O)c(O)c1)C(C)Cc1ccc(O)c(O)c1 (centres unmarked) [Nordihydroguaiaretic acid]	–
5.14	2.23	4.87	CC1(C)[C@@H](O[C@H]2O[C@H](C(=O)O)[C@@H](O)[C@H](O)[C@H]2O[C@@H]2O[C@H](C(=O)O)[C@@H](O)[C@H](O)[C@H]2O)CC[C@]2(C)[C@H]3C(=O)C=C4[C@@H]5C[C@@](C)(C(=O)O)CC[C@]5(C)CC[C@@]4(C)[C@]3(C)CC[C@@H]12 [glycyrrhizin]	–

inhibition at 7.5 min, 1 μM (CYP2C9 [2]; [3]) [%]	inhibition at 7.5 min, 10 μM (CYP2C9 [2]; [3]) [%]	inhibition at 7.5 min, 100 μM (CYP2C9 [2]; [3]) [%]	SMILES	further results
35.6	37.4	45.4	O=c1cc(-c2ccc(O)cc2)oc2cc(O)c([C@@H]3O[C@H](CO)[C@@H](O)[C@H](O)[C@H]3O)c(O)c12 [isovitexin]	–
1	8.12	–	CC(C)[C@@H](C)/C=C/[C@@H](C)[C@H]1CC[C@H]2C3=CC=C4C[C@@H](O)CC[C@]4(C)[C@H]3CC[C@]12C [ergosterol]	inhibition at 7.5 min, 30 μM (CYP2C9 [2]; [3]): 3.57%
20.3	16.2	–	O=C(O)c1ccc(O)c(O)c1 [protocatechuic acid]	–
1.51	4.7	–	COc1ccc(-c2cc(=O)c3c(O)cc(O[C@@H]4O[C@H](CO[C@@H]5O[C@@H](C)[C@H](O)[C@@H](O)[C@H]5O)[C@@H](O)[C@H](O)[C@H]4O)cc3o2)cc1O [Diosmin]	–
–	–	–	O=c1cc(-c2ccc(O)c(O)c2)oc2cc(O)c([C@@H]3O[C@H](CO)[C@@H](O)[C@H](O)[C@H]3O)c(O)c12 [Homoorientin]	% inhibition of CYP2C9 activity (CYP2C9 [1]; test article 1 μM): 3.37%; % inhibition of CYP2C9 activity (CYP2C9 [1]; test article 10 μM): 2.45%; % inhibition of CYP2C9 activity (CYP2C9 [1]; test article 100 μM): 20.19%
1.35	13.4	–	O=c1c(-c2ccc(O)cc2)coc2cc(O)ccc12 [Daidzein]	inhibition at 7.5 min, 25 μM (CYP2C9 [2]; [3]): 15.7%
18.1	18.4	24.8	O=C1C[C@@H](c2ccc(O[C@@H]3O[C@H](CO)[C@@H](O)[C@H](O)[C@H]3O)cc2)Oc2cc(O)ccc21 [Liquiritin]	–
23.8	34.4	95.1	O=C(CCc1ccc(O)cc1)c1c(O)cc(O)cc1O [Phloretin]	–
–	–	–	COc1cc(-c2oc3cc(O)cc(O)c3c(=O)c2O)ccc1O [Isorhamnetin]	inhibition at 7.5 min, 1 μM (CYP2C9 [2]; pH 7.4): 19.6%; inhibition at 7.5 min, 10 μM (CYP2C9 [2]; pH 7.4): 61.5%; inhibition at 7.5 min, 75 μM (CYP2C9 [2]; pH 7.4): 65.7%
-3.58	29.1	–	COc1ccc([C@@H]2CC(=O)c3c(O)cc(O)cc3O2)cc1O [Hesperetin]	–
–	–	–	O=c1cc(-c2ccccc2)oc2cc(O)cc(O)c12 [Chrysin]	inhibition at 7.5 min, 1 μM (CYP2C9 [2]; pH 7.4): 6.86%; inhibition at 7.5 min, 10 μM (CYP2C9 [2]; pH 7.4): 60.6%; inhibition at 7.5 min, 50 μM (CYP2C9 [2]; pH 7.4): 75.1%
–	–	–	O=c1cc(-c2ccc(O)cc2)oc2cc(O)cc(O)c12 [apigenin]	inhibition at 7.5 min, 2.5 μM (CYP2C9 [2]; [3]): 21.7%; inhibition at 7.5 min, 25 μM (CYP2C9 [2]; [3]): 76.9%
30.9	37.4	–	COc1cc(O)c2c(=O)cc(-c3ccc(O)cc3)oc2c1 [Genkwanin]	–
26.9	15.8	26.1	O=C(O)/C=C/c1ccccc1 [trans-cinnamic acid]	–
-22.3	38.3	–	O=c1c(O)c(-c2ccc(O)cc2)oc2cc(O)cc(O)c12 [kaempferol]	–
–	–	–	CC1(C)CC[C@]2(C(=O)O)CC[C@]3(C)C(=CC[C@@H]4[C@@]5(C)CC[C@H](O)C(C)(C)[C@@H]5CC[C@]43C)[C@@H]2C1 [Oleanolic acid]	inhibition at 7.5 min, 1 μM (CYP2C9 [2]; [4]): 16.8%; inhibition at 7.5 min, 10 μM (CYP2C9 [2]; [5]): 42.4%; inhibition at 7.5 min, 100 μM (CYP2C9 [2]; [6]): 41.1%
20.9	27	61.8	O=c1c(O[C@@H]2O[C@H](CO)[C@@H](O)[C@H](O)[C@H]2O)c(-c2ccc(O)c(O)c2)oc2cc(O)cc(O)c12 [isoquercitrin]	–
36.6	–	42.6	CC(=O)OCCCc1ccccc1 [3-Phenylpropyl Acetate]	–
23.3	30.6	–	COc1ccc(-c2coc3cc(O)ccc3c2=O)cc1 [Formononetin]	inhibition at 7.5 min, 50 μM (CYP2C9 [2]; [3]): 57.9%
-7.17	-6.64	-2.02	O=c1ccc2ccc(O)cc2o1 [Umbelliferone]	–
-3.19	10.6	88.8	O=c1c(O)c(-c2cc(O)c(O)c(O)c2)oc2cc(O)cc(O)c12 [myricetin]	–
